Experimental data: the supplement of paper PMC10307832

Legend:
Test in all cases: relative viability (nuclei count vs DMSO), 5 days (fraction); higher = more cells survive
Sorafenib + AZD7762 = compound: CNC(=O)c1cc(Oc2ccc(NC(=O)Nc3ccc(Cl)c(C(F)(F)F)c3)cc2)ccn1 [Sorafenib] + NC(=O)Nc1cc(-c2cccc(F)c2)sc1C(=O)N[C@H]1CCCNC1 [AZD7762] (partner 0.2 µM)
Method in brief: (§1)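 Lung cancer cell lines were seeded in 1536-well plates and dosed by pin tool the next day, with either a single drug or a fixed anchor-drug dose combined with five library-drug doses (not always all listed) spaced in √10 steps. Five days later, one step fixed the cells and stained their nuclei (final 0.05% Triton X-100, 1% formaldehyde, 1 ug/ml Hoechst), and nuclei were counted on 4× images. Relative viability is the nuclei count in treated wells divided by the count in vehicle wells, and each value is the median of duplicate plates.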

Sorafenib + Tozasertib = compound: CNC(=O)c1cc(Oc2ccc(NC(=O)Nc3ccc(Cl)c(C(F)(F)F)c3)cc2)ccn1 [Sorafenib] + Cc1cc(Nc2cc(N3CCN(C)CC3)nc(Sc3ccc(NC(=O)C4CC4)cc3)n2)n[nH]1 [Tozasertib] (partner 0.1 µM)
Method in brief: as §1

Sorafenib + Linsitinib = compound: CNC(=O)c1cc(Oc2ccc(NC(=O)Nc3ccc(Cl)c(C(F)(F)F)c3)cc2)ccn1 [Sorafenib] + C[C@]1(O)C[C@@H](c2nc(-c3ccc4ccc(-c5ccccc5)nc4c3)c3c(N)nccn32)C1 [Linsitinib] (partner 1 µM)
Method in brief: as §1

Sorafenib + OSI-027 = compound: CNC(=O)c1cc(Oc2ccc(NC(=O)Nc3ccc(Cl)c(C(F)(F)F)c3)cc2)ccn1 [Sorafenib] + COc1cccc2cc(-c3nc([C@H]4CC[C@H](C(=O)O)CC4)n4ncnc(N)c34)[nH]c12 [OSI-027] (partner 0.5 µM)
Method in brief: as §1

Sorafenib = compound: CNC(=O)c1cc(Oc2ccc(NC(=O)Nc3ccc(Cl)c(C(F)(F)F)c3)cc2)ccn1 [Sorafenib]
Method in brief: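 For viability, nuclei in each treated well were divided by nuclei in vehicle wells and the median across plates was taken. Lung cancer cell lines in 1536-well plates were pinned with five library-drug doses (not always all listed) spaced by √10, cultured 5 days without medium change, and imaged at 4× after Hoechst staining, with plates passing only at control CV below 25% and at least one doubling.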

Cell Line	relative viability (Sorafenib + AZD7762; first compound 0.08 µM)	relative viability (Sorafenib + AZD7762; first compound 0.253 µM)	relative viability (Sorafenib + AZD7762; first compound 2.53 µM)	relative viability (Sorafenib + Tozasertib; first compound 0.08 µM)	relative viability (Sorafenib + Tozasertib; first compound 0.253 µM)	relative viability (Sorafenib + Tozasertib; first compound 2.53 µM)	relative viability (Sorafenib + Tozasertib; first compound 8 µM)	relative viability (Sorafenib + Linsitinib; first compound 0.08 µM)	relative viability (Sorafenib + Linsitinib; first compound 0.253 µM)	relative viability (Sorafenib + Linsitinib; first compound 2.53 µM)	relative viability (Sorafenib + Linsitinib; first compound 8 µM)	relative viability (Sorafenib + OSI-027; first compound 0.253 µM)	relative viability (Sorafenib + OSI-027; first compound 2.53 µM)	relative viability (Sorafenib + OSI-027; first compound 8 µM)	relative viability (Sorafenib; 0.08 µM)	relative viability (Sorafenib; 0.253 µM)	relative viability (Sorafenib; 2.53 µM)	relative viability (Sorafenib; 8 µM)	relative viability (Sorafenib + AZD7762; first compound 8 µM)	relative viability (Sorafenib + OSI-027; first compound 0.08 µM)
201T	0.575	0.554	0.449	0.964	0.925	0.955	0.827	1	0.985	1.02	1.06	0.706	0.804	0.671	0.975	0.943	1.07	0.918	–	–
A-427	0.831	0.675	0.715	0.21	0.261	0.217	0.132	1.07	1.06	1.03	0.987	0.511	0.432	0.219	0.999	0.902	0.94	0.752	0.541	0.522
ABC-1	1.09	0.714	0.876	0.227	0.219	0.214	0.185	0.837	0.893	0.918	0.956	0.49	0.654	0.37	1.07	0.808	–	0.584	0.68	0.575
BEN	–	0.493	0.741	0.519	0.423	0.536	0.482	1.02	0.914	0.886	0.693	0.326	0.338	0.27	1.08	0.826	1.15	0.823	0.611	0.318
CAL-12T	0.642	0.528	0.616	0.354	0.284	0.271	0.219	0.889	–	0.834	0.656	0.492	0.565	0.299	1.01	0.882	0.985	0.644	0.432	0.78
COR-L23	–	–	–	0.24	0.185	0.113	0.079	1.05	0.814	0.866	0.531	0.725	0.754	–	1.04	0.926	0.957	0.781	–	0.874
COR-L 105	–	–	–	0.405	0.435	0.322	0.411	0.853	0.926	0.906	0.985	0.735	1.05	0.677	1.11	0.867	1.15	0.691	–	0.816
ChaGo-K-1	0.899	0.796	0.845	0.229	0.235	0.215	0.192	–	–	–	–	0.397	0.683	0.46	–	0.915	1	0.867	0.809	0.583
EKVX	0.837	0.638	0.627	0.382	0.419	0.467	0.212	1.12	0.983	0.989	0.912	0.74	0.701	0.649	1.05	0.954	0.963	0.952	0.57	0.712
EMC-BAC-2	1.12	0.982	1.15	0.297	0.186	0.266	0.295	0.821	0.788	0.838	0.771	0.358	0.391	0.358	1.05	0.786	0.938	0.873	1.06	0.341
EPLC-272H	0.247	0.176	–	0.331	0.389	0.389	0.293	1.31	1.09	1.11	–	0.296	0.273	0.269	1.19	0.842	1.09	0.774	0.209	0.314
H3255	1.02	0.799	0.937	0.588	0.458	0.72	0.482	–	0.71	0.903	0.611	0.566	0.619	0.349	1.07	0.89	0.99	0.755	0.716	0.634
HARA	0.317	0.554	0.217	0.0919	0.137	0.146	0.1	1.13	0.859	0.94	0.927	0.5	0.619	0.257	1.17	0.79	1.07	0.767	0.315	0.606
HCC-15	1.18	1.17	1.05	0.443	0.438	0.372	0.179	–	0.873	0.846	0.554	0.558	0.712	0.386	1.05	0.912	1.05	0.69	0.951	0.631
HCC-44	0.99	0.938	0.909	0.884	0.688	0.858	0.773	0.68	0.629	–	0.658	0.431	0.741	0.395	0.989	0.886	0.941	0.901	–	0.552
HCC-78	0.846	0.496	0.863	0.391	0.371	0.492	0.493	0.562	0.42	0.457	0.573	0.304	0.431	0.384	1.13	0.953	1.05	1.05	0.768	0.39
